System: MV-4-11 cells
Test: Cell Viability Assay in MV-4-11 Cells
Format: cell-based
Details: Homo sapiens, MV4-11, 72 h, MV-4-11 cells, 72 h, Cell-Titer Glo; read-out: IC50
Procedure, shortened: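 Luminescent ATP read-out (CellTiter-Glo) after 72 h compound treatment of MV-4-11 leukaemia cells (7,000 per well, IMDM plus 10% FBS). Values expressed relative to DMSO control and derived by four-parameter non-linear regression.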

SMILES	IC50
Cc1cccc2ccnc(N(C(=O)c3ccc(Nc4nccc(-n5cncn5)n4)cc3F)[C@@H]3CCCNC3)c12 [Example 722, (R)-4-((4-(1H-1,2,4-triazol-1-yl)pyrimidin-2-yl)amino)-2-fluoro-N-(8-methylisoquinolin-1-yl)-N-(piperidin-3-yl)benzamide]	160 nM
Cc1nnc(-c2ccc(C(=O)N(c3nccc4scc(Cl)c34)[C@@H]3CCCNC3)c(F)c2)s1 [Example 653, N-(3-chlorothieno[3,2-c] 690yridine-4-yl)-2-fluoro-4-(5-methyl-1,3,4-thiadiazol-2-yl)-N-[(3R)-3-piperidyl] benzamide]	180 nM
O=C(O)/C=C/c1cc2c(N(C(=O)c3ccc(-n4nnc5cccnc54)cc3F)[C@@H]3CCCNC3)nccc2s1 [Example 500, (E)-3-[4-[[2-fluoro-4-(triazolo[4,5-b]pyridin-3-yl)benzoyl]-[(3R)-3-piperidyl]amino]thieno[3,2-c]pyridin-2-yl]prop-2-enoic acid]	> 10000 nM
CN(C)C(=O)/C=C/c1cc2c(N(C(=O)c3ccc(-n4nnc5cccnc54)cc3F)[C@@H]3CCCNC3)nccc2s1 [Example 526, N-[2-[(E)-3-(dimethylamino)-3-oxo-prop-1-enyl]thieno[3,2-c]pyridin-4-yl]-2-fluoro-N-[(3R)-3-piperidyl]-4-(triazolo[4,5-b]pyridin-3-yl)benzamide]	870 nM
Cn1ccc(-c2cc3c(N(C(=O)c4ccc(-n5nnc6cccnc65)cc4F)[C@@H]4CCCNC4)nccc3s2)n1 [Example 438, 2-fluoro-N-[2-(1-methylpyrazol-3-yl)thieno[3,2-c]pyridin-4-yl]-N-[(3R)-3-piperidyl]-4-(triazolo[4,5-b]pyridin-3-yl)benzamide]	220 nM
O=C(c1ccc(-c2cnn3cccnc23)cc1)N(c1nccc2ccccc12)[C@@H]1CCCNC1 [Example 302, (R)—N-(isoquinolin-1-yl)-N-(piperidin-3-yl)-4-(pyrazolo[1,5-a]pyrimidin-3-yl)benzamide]	480 nM
O=C(O)/C=C/c1ccc2c(N(C(=O)c3ccc(-n4nnc5cccnc54)cc3F)[C@@H]3CCCNC3)nccc2c1 [Example 406, (R,E)-3-(1-(4-(3H-[1,2,3]triazolo[4,5-b]pyridin-3-yl)-2-fluoro-N-(piperidin-3-yl)benzamido)isoquinolin-6-yl)acrylic acid]	> 10000 nM
Cc1cn(-c2ccc(C(=O)N(c3nccc4scc(C)c34)[C@@H]3CCCNC3)cc2)nn1 [Example 689, (R)-4-(4-methyl-1H-1,2,3-triazol-1-yl)-N-(3-methylthieno[3,2-c]pyridin-4-yl)-N-(piperidin-3-yl)benzamide]	120 nM
Cc1cc(C2=NOC(C)(C)C2=O)ccc1C(=O)N(c1nccc2sc(C#CCO)cc12)[C@@H]1CCCNC1 [Example 737, (R)-4-(5,5-dimethyl-4-oxo-4,5-dihydroisoxazol-3-yl)-N-(2-(3-hydroxyprop-1-yn-1-yl)thieno[3,2-c]pyridin-4-yl)-2-methyl-N-(piperidin-3-yl)benzamide]	2100 nM
O=C(NCc1ccccc1)c1ccc2c(N(C(=O)c3ccc(-n4nnc5cccnc54)cc3F)[C@@H]3CCCNC3)nccc2c1 [Example 373, (R)-1-(4-(3H-[1,2,3]triazolo[4,5-b]pyridin-3-yl)-2-fluoro-N-(piperidin-3-yl)benzamido)-N-benzylisoquinoline-6-carboxamide]	180 nM
Cc1cccc2ccnc(N(C(=O)c3ccc(Nc4nccc(CN5CCCCC5)n4)cc3F)[C@@H]3CCCNC3)c12 [Example 687, (R)-2-fluoro-N-(8-methylisoquinolin-1-yl)-4-((4-(piperidin-1-ylmethyl)pyrimidin-2-yl)amino)-N-(piperidin-3-yl)benzamide]	40 nM
CC(C)NC(=O)c1cccc(-c2cc3c(N(C(=O)c4ccc(-c5cn(C)nn5)cc4F)[C@@H]4CCCNC4)nccc3s2)c1 [Example 539, 2-fluoro-N-[2-[3-(isopropylcarbamoyl)phenyl]thieno[3,2-c]pyridin-4-yl]-4-(1-methyltriazol-4-yl)-N-[(3R)-3-piperidyl]benzamide]	630 nM
Cn1cc(-c2ccc(C(=O)N(c3nccc4cc(/C=C/C(=O)O)ccc34)[C@@H]3CCCNC3)c(F)c2)nn1 [Example 494, (R,E)-3-(1-(2-fluoro-4-(1-methyl-1H-1,2,3-triazol-4-yl)-N-(piperidin-3-yl)benzamido)isoquinolin-6-yl)acrylic acid]	> 10000 nM
Cn1cc(-c2ccc(C(=O)N(c3nccc4sc(-c5ccc6c(c5)C(=O)NC6)cc34)[C@@H]3CCCNC3)c(F)c2)nn1 [Example 533, 2-fluoro-4-(1-methyltriazol-4-yl)-N-[2-(3-oxoisoindolin-5-yl)thieno[3,2-c]pyridin-4-yl]-N-[(3R)-3-piperidyl]benzamide]	910 nM
Cc1cccc2ccnc(N(C(=O)c3ccc(Nc4nccc(N5CC[C@H](O)C5)n4)cc3F)[C@@H]3CCCNC3)c12 [Example 625, 2-fluoro-4-((4-((S)-3-hydroxypyrrolidin-1-yl)pyrimidin-2-yl)amino)-N-(8-methylisoquinolin-1-yl)-N—((R)-piperidin-3-yl)benzamide]	20 nM
C=C(C)c1csc2ccnc(N(C(=O)c3ccc(-c4nnc(C)s4)cc3F)[C@@H]3CCCNC3)c12 [Example 651, 2-fluoro-N-(3-isopropenylthieno[3,2-c]686yridine-4-yl)-4-(5-methyl-1,3,4-thiadiazol-2-yl)-N-[(3R)-3-piperidyl]benzamide]	460 nM
Cc1cccc2ccnc(N(C(=O)c3ccc(Nc4nccc(-c5ccccn5)n4)cc3F)[C@@H]3CCCNC3)c12 [Example 728, (R)-2-fluoro-N-(8-methylisoquinolin-1-yl)-N-(piperidin-3-yl)-4-((4-(pyridin-2-yl)pyrimidin-2-yl)amino)benzamide]	86 nM
COCCCc1ccnc(Nc2ccc(C(=O)N(c3nccc4cccc(C)c34)[C@@H]3CCCNC3)c(F)c2)n1 [Example 752, (R)-2-fluoro-4-((4-(3-methoxypropyl)pyrimidin-2-yl)amino)-N-(8-methylisoquinolin-1-yl)-N-(piperidin-3-yl)benzamide]	190 nM
COc1cc(-c2cc3c(N(C(=O)c4ccc(-n5nnc6cccnc65)cc4F)[C@@H]4CCCNC4)nccc3s2)ccn1 [Example 460, 2-fluoro-N-[2-(2-methoxy-4-pyridyl)thieno[3,2-c]pyridin-4-yl]-N-[(3R)-3-piperidyl]-4-(triazolo[4,5-b]pyridin-3-yl)benzamide]	220 nM
O=C(c1ccc(-n2nnc3cccnc32)cc1F)N(c1nccc2cc(-c3cccs3)ccc12)[C@@H]1CCCNC1 [Example 368, (R)-4-(3H-[1,2,3]triazolo[4,5-b]pyridin-3-yl)-2-fluoro-N-(piperidin-3-yl)-N-(6-(thiophen-2-yl)isoquinolin-1-yl)benzamide]	500 nM

Second part, the compound after the results:

IC50	SMILES
53 nM	COCc1nnc(-c2ccc(C(=O)N(c3nccc4cc(Cl)cc(C)c34)[C@@H]3CCCNC3)cn2)s1 [Example 895, N-(6-chloro-8-methyl-1-isoquinolyl)-6-[5-(methoxymethyl)-1,3,4-thiadiazol-2-yl]-N-[(3R)-3-piperidyl]pyridine-3-carboxamide]
1000 nM	Cn1cc(-c2ccc(C(=O)N(c3nccc4cc(Cc5cccnc5)ccc34)[C@@H]3CCCNC3)c(F)c2)nn1 [Example 828, (R)-2-fluoro-4-(1-methyl-1H-1,2,3-triazol-4-yl)-N-(piperidin-3-yl)-N-(6-(pyridin-3-ylmethyl)isoquinolin-1-yl)benzamide]
120 nM	Cc1cc(Cl)cc2ccnc(N(C(=O)c3ccc(-c4cc(Cl)cnn4)cn3)[C@@H]3CCCNC3)c12 [Example 769, (R)—N-(6-chloro-8-methylisoquinolin-1-yl)-5-(5-chloropyridazin-3-yl)-N-(piperidin-3-yl)picolinamide]
12 nM	Cc1cccc2ccnc(N(C(=O)c3ccc(Nc4nccc(N5CCC(C)(CO)CC5)n4)cc3F)[C@@H]3CCCNC3)c12 [Example 963, 2-fluoro-4-({4-[4-(hydroxymethyl)-4-methylpiperidin-1-yl]pyrimidin-2-yl}amino)-N-(8-methylisoquinolin-1-yl)-N-[(3R)-piperidin-3-yl]benzamide]
140 nM	Cn1cc(-c2ccc(C(=O)N(c3nccc4cc(-c5ccc(CN)cc5)ccc34)[C@@H]3CCCNC3)c(F)c2)nn1 [Example 834, (R)—N-(6-(4-(aminomethyl)phenyl)isoquinolin-1-yl)-2-fluoro-4-(1-methyl-1H-1,2,3-triazol-4-yl)-N-(piperidin-3-yl)benzamide]
980 nM	Cc1nnc(-c2ccc(C(=O)N(c3nccc4cc(F)ccc34)[C@@H]3CCCNC3)cc2)s1 [Example 804, (R)—N-(6-fluoroisoquinolin-1-yl)-4-(5-methyl-1,3,4-thiadiazol-2-yl)-N-(piperidin-3-yl)benzamide]
88 nM	Cc1cccc2ccnc(N(C(=O)c3ccc(Nc4nccc(N5CCOC[C@H]5CO)n4)cc3F)[C@@H]3CCCNC3)c12 [Example 942, 2-fluoro-4-((4-((R)-3-(hydroxymethyl)morpholino)pyrimidin-2-yl)amino)-N-(8-methylisoquinolin-1-yl)-N—((R)-piperidin-3-yl)benzamide]
80 nM	CCOCc1nnc(-c2ccc(C(=O)N(c3nccc4cc(F)cc(C)c34)[C@@H]3CCCNC3)c(F)c2)s1 [Example 854, 4-[5-(ethoxymethyl)-1,3,4-thiadiazol-2-yl]-2-fluoro-N-(6-fluoro-8-methyl-1-isoquinolyl)-N-[(3R)-3-piperidyl]benzamide]
150 nM	Cc1cccc2ccnc(N(C(=O)c3ccc(Nc4nccc(N(C)C5CCCC5)n4)cc3F)[C@@H]3CCCNC3)c12 [Example 948, 4-({4-[cyclopentyl(methyl)amino]pyrimidin-2-yl}amino)-2-fluoro-N-(8-methylisoquinolin-1-yl)-N-[(3R)-piperidin-3-yl]benzamide]
75 nM	COCCCc1nnc(-c2ccc(C(=O)N(c3nccc4cc(C)cc(C)c34)[C@@H]3CCCNC3)cn2)s1 [Example 904, N-(6,8-dimethyl-1-isoquinolyl)-6-[5-(3-methoxypropyl)-1,3,4-thiadiazol-2-yl]-N-[(3R)-3-piperidyl]pyridine-3-carboxamide]
